# Active and inactive are the calls of the source. No cut-off for these calls is given here.
# Experiments:
# [1] = tested on: Mus musculus; test: Immunostimulatory activity in C57BL/6 mouse assessed as induction of IFN-gamma production in serum at 2 ug, iv administered through PBS solution by ELISA; format: functional, organism-based
# [2] = tested on: Mus musculus; test: Immunostimulatory activity in C57BL/6 mouse assessed as induction of IL-4 production in serum at 2 ug, iv administered through PBS solution; format: functional, organism-based
# [3] = tested on: Mus musculus; test: Immunostimulatory activity in C57BL/6 mouse assessed as induction of IL-4/IFN-gamma ratio in serum at 2 ug, iv administered through PBS solution; format: functional
Structure (SMILES),Activity [1],Activity [2],Ratio [3]
CCCCCCCCCCCCCCCCCC(=O)N(C)[C@@H](CO[C@H]1O[C@H](CO)[C@H](O)[C@H](O)[C@H]1O)[C@H](O)[C@H](O)CCCCCCCCCCCCCC,inactive,inactive,0.0095
CCCCCCCCCCCCCCCC[C@@H](O)C(=O)N(C)[C@@H](CO[C@H]1O[C@H](CO)[C@H](O)[C@H](O)[C@H]1O)[C@H](O)[C@H](O)CCCCCCCCCCCCCC,inactive,inactive,–
CCCCCCCCCCCCCCCC[C@@H](C)C(=O)N(C)[C@@H](CO[C@H]1O[C@H](CO)[C@H](O)[C@H](O)[C@H]1O)[C@H](O)[C@H](O)CCCCCCCCCCCCCC,inactive,inactive,–
CCCCCCCCCCCCCCCCCCCCCCCCCC(=O)N[C@@H](CO[C@H]1O[C@H](CO)[C@H](O)[C@H](O)[C@H]1O)[C@H](O)[C@H](O)CCCCCCCCCCCCCC [RGI-7000],–,–,0.0043
CCCCCCCCCCCCCCCC[C@@H](O)C(=O)N[C@@H](CO[C@H]1O[C@H](CO)[C@H](O)[C@H](O)[C@H]1O)[C@H](O)[C@H](O)CCCCCCCCCCCCCC,Active,Active,–
CCCCCCCCCCCCCCCCC(C)(C)C(=O)N[C@@H](CO[C@H]1O[C@H](CO)[C@H](O)[C@H](O)[C@H]1O)[C@H](O)[C@H](O)CCCCCCCCCCCCCC,Active,Active,–
CCCCCCCCCCCCCCCCCC(=O)N[C@@H](CO[C@H]1O[C@H](CO)[C@H](O)[C@H](O)[C@H]1O)[C@H](O)[C@H](O)CCCCCCCCCCCCCC,Active,Active,–
CCCCCCCCCCCCCCCC[C@@H](C)C(=O)N[C@@H](CO[C@H]1O[C@H](CO)[C@H](O)[C@H](O)[C@H]1O)[C@H](O)[C@H](O)CCCCCCCCCCCCCC,Active,Active,–
CCCCCCCCCCCCCCCCC(C)(C)C(=O)N(C)[C@@H](CO[C@H]1O[C@H](CO)[C@H](O)[C@H](O)[C@H]1O)[C@H](O)[C@H](O)CCCCCCCCCCCCCC,inactive,inactive,–
CCCCCCCCCCCCCCCCCCCCCCCCCC(=O)N(C)[C@@H](CO[C@H]1O[C@H](CO)[C@H](O)[C@H](O)[C@H]1O)[C@H](O)[C@H](O)CCCCCCCCCCCCCC,–,–,0.017
